Results published in patent US7754200B2, “Phosphate transport inhibitors” (Genzyme Corporation, priority 2002, dated 2010).

Test system: phosphate uptake by rabbit intestinal Brush Border Membrane Vesicles (BBMV)
Experiment: 33PO4 Uptake in Rabbit Intestinal BBMV High Throughput Screening (HTS) assay
Assay type: biochemical
Settings: inhibition of 33PO4 uptake, 15 minutes
From the text: The activity of compounds of the present invention can be assessed using suitable assays, such as the ^33PO4 Uptake In Rabbit Intestinal BBMV High Throughput Screening (HTS) assay, as described in the Example 28. Compounds of the present invention can also be identified by virtue of their ability to inhibit the absorption of phosphate in vivo, for example, in the gastrointestinal tract of a laboratory animal.
The following example outlines the procedures required for in vitro measurement of the inhibition of phosphate uptake by rabbit intestinal Brush Border Membrane Vesicles (BBMV).
Rabbit Intestinal Brush Border Membrane Vesicles (BBMV) were isolated from mucosal scrapings of the upper small intestine (duodenum) of male New Zealand White rabbits. The scrapings were divided into 2 g aliquots in cryopreservation vials, frozen in liquid nitrogen, and stored at −80° C.
The following procedure was performed for each 2 g sample of BBMV mucosal scraping. Buffer volumes and container sizes were adjusted appropriately for the number of 2 g samples used. The entire preparation was performed on ice, unless otherwise stated.
Mucosal scrapings (2 g per tube) were thawed in a 37° C. water bath for 3 minutes and then placed on ice. The scrapings were suspended with a total of 7.5 mL of 300 MET, and transferred to a 250 mL Coming tube on ice. To the suspension was added 30 mL cold (4° C.) deionized water (dH2O). The suspension was homogenized with a tissue homogenizer (Polytron) on high speed for two minutes. A stir bar and MgCl2 (81.3 mg) were added. The suspension was mixed well by inverting the closed tube. The suspension was stirred on ice, ensuring that a good vortex is achieved with the stir bar, for 40 minutes. The suspension was transferred to a chilled centrifuge tube and spun at 4000×g for 15 minutes. The supernatant was transferred to a new chilled centrifuge tube and spun at 32000×g for 30 minutes. The supernatant was discarded and the pellet was re-suspended with 34 mL cold 60 MET. The suspension was homogenized with a Dounce homogenizer with 8 strokes. The suspension was transferred to a fresh 250 mL Coming tube. A stir bar and 69.1 mg MgCl2 were added. The suspension was stirred well on ice for 10 minutes. The suspension was transferred to a chilled centrifuge tube and spun at 4000×g for 15 minutes. The supernatant was transferred to a new chilled centrifuge tube and spun at 32000×g for 30 minutes. The supernatant was discarded. At this stage, the preparation could be continued or this pellet (P4) could be frozen in liquid nitrogen and stored at −80° C. When needed, this pellet could be allowed to thaw at room temperature for 5 minutes. Continuing the preparation, the pellet was re-suspended with 34 mL cold 280 MH. The suspension was homogenized in a Dounce homogenize with 8 strokes. The suspension was transferred to a new chilled centrifuge tube and spun at 32000×g for 30 minutes. The supernatant was discarded. To the pellet was added 500 μL 280 MH and the pellet was re-suspended very carefully with a 1 mL tuberculin syringe with a 25-gauge needle with care not to create bubbles. Once the entire pellet was suspended, the suspension was transferred to a chilled 1.5 mL microfuge tube. The suspension was evenly dispersed by bringing the suspension up into the syringe through the 25-gauge needle, and back out again eight times with care not to create bubbles. The total protein concentration was determined by performing a Bradford Protein Assay. Using that value, the BBMV were diluted with 280 MH to reach approximately 0.5-2.0 mg/mL. The solution was used as soon as possible for uptake studies.
^33PO4 Uptake in Rabbit Intestinal BBMV
The following experiment was performed using a Beckman Multimek 96-tip robotic pipettor. The following outlines the preparation required to screen one 96-well plate of compounds. However, multiple plates could be screened in one experiment. […]

SMILES	IC50 [µM]
O=P(O)(O)CP(=O)(O)C1CCCCC1 [Compound 33]	> 1600
CCCCCCCCCCC(P(C)(=O)O)P(=O)(O)O (centres unmarked) [Compound 26]	700 to 1000
C=CCCCP(=O)(O)C(CCCC1CCCCC1)P(=O)(O)O (centres unmarked) [Compound 36]	> 1600
O=P(O)(O)CP(=O)(O)CCCCCCCCCC(Br)CBr (centres unmarked) [Compound 6]	< 100
O=P(O)(O)CP(=O)(O)CCCCCCCCCC1CO1 (centres unmarked) [Compound 22]	700 to 1000
C=CCCCCCCCCCP(=O)(O)C(CCCCC)P(=O)(O)O (centres unmarked) [Compound 21]	700 to 1000
C=CCCCCCCCCCP(=O)(O)C(F)(F)P(=O)(O)O [Compound 2]	< 100
O=P(O)(O)CP(=O)(O)CCCCCCCCCCCO [Compound 25]	700 to 1000
O=P(O)(O)CP(=O)(O)CCCCCCCCCCCNS(=O)(=O)c1ccc(OC(F)(F)F)cc1 [Compound 14]	100 to 300
O=P(O)(O)CP(=O)(O)c1ccc(C(F)(F)F)cc1 [Compound 5]	< 100
CCC(=O)NCCCCCCCCCCCP(=O)(O)CP(=O)(O)O [Compound 24]	700 to 1000
C=CCCCP(=O)(O)C(Cc1ccc(-c2ccccc2)cc1)P(=O)(O)O (centres unmarked) [Compound 32]	1000 to 1600
C=CCCCCCCCCCP(=O)(O)C(CCCCC)P(=O)(O)O (centres unmarked) [Compound 23]	700 to 1000
C=CCCCP(=O)(O)C(CCCCCCCCCC)P(=O)(O)O (centres unmarked) [Compound 17]	300 to 700
C=CCCCCCCCCCP(=O)(O)CP(=O)(O)O [Compound 4]	< 100
O=P(O)(O)CP(=O)(O)CCCCCBr [Compound 29]	1000 to 1600
CCCCCCCCCC(CCCCCNC(=O)CC)P(=O)(O)CP(=O)(O)O (centres unmarked) [Compound 28]	1000 to 1600
O=P(O)(O)CP(=O)(O)CCCC1CCCCC1 [Compound 19]	300 to 700
O=C(NCCCCCCCCCCCP(=O)(O)CP(=O)(O)O)c1ccc(OC(F)(F)F)cc1 [Compound 10]	100 to 300
NCCCCCCCCCCCP(=O)(O)CP(=O)(O)O [Compound 27]	1000 to 1600
O=P(O)(O)CP(=O)(O)C/C=C/c1ccccc1 [Compound 30]	1000 to 1600
CCCCCCCCCC(CCCCCN)P(=O)(O)CP(=O)(O)O (centres unmarked) [Compound 18]	300 to 700
CCCCCCCCCCP(=O)(O)CP(=O)(O)O [Compound 1]	< 100
O=C1c2ccccc2C(=O)N1CCCCCCCCCCCP(=O)(O)CP(=O)(O)O [Compound 8]	< 100
C=CC(=O)NCCCCCCCCCCCP(=O)(O)CP(=O)(O)O [Compound 35]	> 1600
C=CCCCCCCCCCP(=O)(O)C(F)P(=O)(O)O (centres unmarked) [Compound 3]	< 100
C=CCCCP(=O)(O)CP(=O)(O)O [Compound 34]	> 1600
C=CCCC(CCCCCCCCCC)P(=O)(O)CP(=O)(O)O (centres unmarked) [Compound 11]	100 to 300
C=CCCCCCCCCCP(=O)(O)CP(=O)(O)CP(=O)(O)O [Compound 16]	100 to 300
